Laboratory results published in patent publication US7112318B2, “Non-invasive diagnostic imaging technology for mitochondria dysfunction using radiolabeled lipophilic salts” (The Johns Hopkins University, priority 2002, dated 2006).
Several values for one entry are separate records, joined by “and”; a condition that tells them apart may be missing. Equal values may be shown once. Read-outs that look alike come from different tables or passages of the source.

Columns and labels:
[1] = test system: myocardium; details: cited from earlier work; for myocardial extraction under baseline / normal flow: baseline or normal flow; for myocardial extraction at increased flow: five-fold increases in flow rate / high flow rates
[2] = test system: myocardium; test: C-11-TPMP uptake kinetics in the myocardium (dog PET, LAD occlusion); type: in vivo
Procedure: We have examined the performance of C-11-triphenyl phosphonium cation (TPMP) for assessing regional myocardial flow in dog using PET (Kraus, 1994).
Methods: Four mCi of C-11-TPMP were introduced i.v., and dynamic images of increasing duration (15 sec to 20 min) were acquired over a total time of 85 min. Images were acquired on the GE 4096+ PET scanner (15 slices, 6.5 mm slice thickness). Images were reconstructed using backprojection, and corrected for attenuation. A detailed description of methods appears in Kraus, 1994.
To investigate the relationship between myocardial blood flow and C-11-TPMP uptake in the heart, the LAD was occluded and the C-11-TPMP accumulation in tissue samples compared to microsphere determined regional myocardial blood flow. A significant correlation (r=0.93, p<0.01) was found at 5 min after LAD occlusion (FIG. 12). The non-infracted/infracted myocardium ratio was 12.1±2.4.

[3] = Biodistribution in mice 60 min after i.v. injection; details: 60 min after iv. injection
Procedure: (§1) Three to five mice were used for the biodistribution study of each tracer. Nonanesthetized animals were injected i.v. with tracer solution (FBnTP or FPTP, TPMP 25 μCi; MIBI 40 μCi; TPP 2 μCi, all in a volume of 0.2 mL saline) then killed by neck dislocation at 60 min after injection. The organs and tissues of interest were removed and counted by a radioactivity counter along with standards (1:1000) (LKB Wallac, 1282 Compugamma CS).

[4] = test system: FCA-induced inflammation; test: Accumulation in FCA-induced inflammation tissue and healthy muscle; type: in vivo; details: rats, 3 days after administration of FCA
Procedure: 0.1 ml of nitrosomethyl urea (NUM) was introduced i.p in female rats (150 g). When tumor reached an approximate size of 1 to 1.5 cm, FCA was injected (0.15 ml) to the hind limb footpad. Uptake assays were carried out 3 days thereafter. F-18-FBnTP (0.25 mCi) was injected via tail vein. Sixty minutes later tumor, inflamed tissue and healthy muscle tissue of the opposite limb (control) were collected on ice, weighed and counted in a gamma counter together with standards.
The accumulation of the novel F-18-phosphonium cations, F-18-FBnTP and F-18-fluoropropyl triphenyl phosphonium (F-18-FPTP) in comparison with F-18-FDG in FCA-induced inflammation and healthy tissue is presented in Table 2. Induction of inflammation and activity counting were carried out as described above.

[5] = mouse, in vivo, iv, 60 min
Procedure: as §1

[6] = test system: prostate carcinoma; test: Tumor selectivity in orthotopic model of prostate carcinoma; type: in vivo; details: nude mice, normalized to muscle
Procedure: Methods: 2×10^6 cells were injected, under anesthesia, into the prostate epithelial tissue of nude mice. When tumor reached an approximate size of 5 mm, uptake assays were performed as described above. Tumor selectivity of F-18-FBnTP and F-18-FDG was compared (3 mice in each group)

Structure (SMILES)	myocardial extraction under baseline / normal flow [1]	myocardial extraction at increased flow [1]	biodistribution, blood [3] [% ID/g]	biodistribution, heart [3] [% ID/g]	biodistribution, kidney [3] [% ID/g]	biodistribution, liver [3] [% ID/g]	biodistribution, lung [3] [% ID/g]	biodistribution, muscle [3] [% ID/g]	biodistribution, spleen [3] [% ID/g]	biodistribution, brain [3] [% ID/g]	Inf/Control [4]	accumulation, Control (healthy muscle) [4]	accumulation, Inflammation [4]	further results
[201Tl] [Thallium 201]	about 80%	about 60%												
[11CH3][P+](c1ccccc1)(c1ccccc1)c1ccccc1 [[11C]TPMP, C-11-triphenylmethyl phosphonium]			0.03 ± 0.00	13.4 ± 0.95	3.79 ± 0.83	5.68 ± 0.60	2.20 ± 0.21	2.49 ± 0.35	1.43 ± 0.18					extraction fraction in the heart ([2]; baseline conditions, flow=69 ml/min/100 g): 91%; decrease of the extraction fraction ([2]; five-fold increase in flow by adenosine): 39%
[18F]CCC[P+](c1ccccc1)(c1ccccc1)c1ccccc1 [[18F]FPTP, [^18F]3-fluoropropyltriphenyl-phosphonium ion]			0.01 ± 0.00	9.86 ± 0.82	5.74 ± 0.54	4.22 ± 1.79	2.02 ± 0.34	2.06 ± 0.53	1.23 ± 0.26	0.03 ± 0.00	0.25 ± 0.04	0.29 ± 0.06 % ID/g tissue	0.07 ± 0.01 % ID/g tissue	accumulation, Blood [4]: *0.037 ± 0.01 % ID/g tissue
c1ccc([P+](c2ccccc2)(c2ccccc2)c2ccccc2)cc1 [[^3H]TPP, tetraphenyl phosphonium]														biodistribution, blood [5]: 0.09 ± 0.02 % ID/g; biodistribution, brain [5]: 0.06 0.02 % ID/g; biodistribution, heart [5]: 20.7 ± 1.92 % ID/g; biodistribution, kidney [5]: 4.37 ± 0.66 % ID/g; biodistribution, liver [5]: 6.12 ± 1.08 % ID/g; biodistribution, lung [5]: 2.81 ± 0.41 % ID/g; biodistribution, muscle [5]: 2.22 ± 0.41 % ID/g; biodistribution, spleen [5]: 1.93 ± 0.47 % ID/g
OC[C@H]1OC(O)[C@H]([18F])[C@@H](O)[C@@H]1O (stereo partly drawn) [[^18F]FDG, reference compound]											2.12 ± 0.73 and 1.20 ± 0.29	0.68 ± 0.14 % ID/g tissue and 1.05 ± 0.35 % ID/g tissue	1.42 ± 0.53 % ID/g tissue and 1.20 ± 0.16 % ID/g tissue	uptake ratio of malignant-to-normal prostate tissue [6]: 1.25
[99Tc].[C-]#[N+]CC(C)(C)OC.[C-]#[N+]CC(C)(C)OC.[C-]#[N+]CC(C)(C)OC.[C-]#[N+]CC(C)(C)OC.[C-]#[N+]CC(C)(C)OC.[C-]#[N+]CC(C)(C)OC [[^99mTc]MIBI, Tc-99m-sestamibii, reference compound]	about 60%	40%	0.26 ± 0.05	5.08 ± 0.25	12.6 ± 2.57	5.55 ± 1.08	0.98 ± 0.19	1.56 ± 0.31	1.27 ± 0.33	0.08 ± 0.04				
